Experimental findings from patent US8916565B2, “Pyrrolopyrazine-spirocyclic piperidine amides as modulators of ion channels” (priority 2011, dated 2014) are described below.

The structures appear in SMILES notation. Where only a bound is given, the exact number is not on record here.

The target in the assay is human NaV subtype, like NaV 1.7 (Homo sapiens, UniProt Q15858). The assay can be described thus: E-VIPR optical membrane potential assay with electrical stimulation. The assay is classed as cell-based. The conditions noted are these: active against one or more sodium channels; Table 3 does not name the assay or NaV subtype; read-out: Binned Activity Data (IC50).
human NaV subtype, like NaV 1.7, sequence (Q15858 whole entry): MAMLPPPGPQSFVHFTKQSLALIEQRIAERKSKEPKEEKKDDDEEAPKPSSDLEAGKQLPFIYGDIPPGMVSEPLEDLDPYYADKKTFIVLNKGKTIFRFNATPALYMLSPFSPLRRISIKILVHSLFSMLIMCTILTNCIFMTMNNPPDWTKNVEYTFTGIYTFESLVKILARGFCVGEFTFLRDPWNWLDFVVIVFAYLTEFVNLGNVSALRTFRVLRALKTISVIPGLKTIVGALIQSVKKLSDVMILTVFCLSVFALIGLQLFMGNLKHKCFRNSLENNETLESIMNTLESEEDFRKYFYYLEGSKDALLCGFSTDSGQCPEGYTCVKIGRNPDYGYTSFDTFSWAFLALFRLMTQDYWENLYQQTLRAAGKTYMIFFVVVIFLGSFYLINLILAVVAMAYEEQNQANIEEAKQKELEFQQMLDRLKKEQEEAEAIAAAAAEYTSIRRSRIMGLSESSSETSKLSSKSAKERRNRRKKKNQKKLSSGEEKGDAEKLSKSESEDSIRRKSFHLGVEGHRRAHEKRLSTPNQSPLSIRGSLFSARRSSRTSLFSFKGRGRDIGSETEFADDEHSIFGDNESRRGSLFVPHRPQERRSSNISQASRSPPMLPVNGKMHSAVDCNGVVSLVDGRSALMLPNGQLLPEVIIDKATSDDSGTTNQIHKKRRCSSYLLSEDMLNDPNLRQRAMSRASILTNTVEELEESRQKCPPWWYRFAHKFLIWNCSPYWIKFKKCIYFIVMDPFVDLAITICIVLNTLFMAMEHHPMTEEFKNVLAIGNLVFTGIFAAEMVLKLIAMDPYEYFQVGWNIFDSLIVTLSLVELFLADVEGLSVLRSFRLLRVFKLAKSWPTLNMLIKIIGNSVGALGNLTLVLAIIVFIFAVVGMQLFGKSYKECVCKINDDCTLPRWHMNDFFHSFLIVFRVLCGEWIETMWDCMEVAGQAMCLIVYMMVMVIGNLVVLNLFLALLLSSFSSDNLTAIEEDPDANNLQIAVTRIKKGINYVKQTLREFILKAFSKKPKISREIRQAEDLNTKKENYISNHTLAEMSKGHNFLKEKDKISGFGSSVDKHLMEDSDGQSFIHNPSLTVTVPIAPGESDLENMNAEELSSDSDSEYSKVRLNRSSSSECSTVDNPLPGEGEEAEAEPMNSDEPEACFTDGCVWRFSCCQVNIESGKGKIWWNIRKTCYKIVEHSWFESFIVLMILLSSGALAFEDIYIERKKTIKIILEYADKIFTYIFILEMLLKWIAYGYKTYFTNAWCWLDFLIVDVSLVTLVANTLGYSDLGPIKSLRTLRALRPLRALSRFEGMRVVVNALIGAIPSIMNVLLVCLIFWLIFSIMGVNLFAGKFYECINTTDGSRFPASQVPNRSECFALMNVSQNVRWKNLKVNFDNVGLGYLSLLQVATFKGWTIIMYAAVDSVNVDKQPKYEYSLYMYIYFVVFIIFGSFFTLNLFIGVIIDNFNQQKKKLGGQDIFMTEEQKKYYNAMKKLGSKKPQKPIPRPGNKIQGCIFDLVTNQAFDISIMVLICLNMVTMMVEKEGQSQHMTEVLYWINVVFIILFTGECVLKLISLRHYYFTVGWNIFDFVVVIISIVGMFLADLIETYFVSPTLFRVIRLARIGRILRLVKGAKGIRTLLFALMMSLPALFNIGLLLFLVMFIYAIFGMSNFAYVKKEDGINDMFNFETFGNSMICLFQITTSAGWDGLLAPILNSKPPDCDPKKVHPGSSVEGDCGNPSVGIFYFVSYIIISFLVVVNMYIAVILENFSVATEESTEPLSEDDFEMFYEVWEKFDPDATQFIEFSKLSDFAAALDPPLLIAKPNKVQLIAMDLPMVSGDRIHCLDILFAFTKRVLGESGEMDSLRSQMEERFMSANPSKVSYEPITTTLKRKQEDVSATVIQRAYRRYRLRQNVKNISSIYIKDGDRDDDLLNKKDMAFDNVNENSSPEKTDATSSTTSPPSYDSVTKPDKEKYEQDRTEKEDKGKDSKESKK
In general, IC50 refers to the concentration at which inhibition is half-maximal. Turning to `CCN(C)c1ccnc2c(C(=O)N3CCC4(CC3)c3ccc(C(F)(F)F)n3CCN4C)cnn12` [Compound 628], the concentration for half-maximal inhibition (IC50) is not above 2 µM.

As for `COc1cc(C(=O)N2CCC3(CC2)NC(C)(C)Cn2c(C(C)=O)ccc23)ccc1C(C)(C)C` [Compound 353], the IC50 was not above 2 µM.

Turning to `COc1ccc(C(=O)N2CCC3(CC2)c2ccc(C(C)=O)n2CCN3C)cc1-c1ccccc1` [Compound 205], the IC50 is more than 5 µM.

On to `CC(=O)c1ccc2n1CCN(C)C21CCN(C(=O)c2ccc(OC(C)C)c(C)c2)CC1` [Compound 122], for which the IC50 is not above 2 µM.

Turning to `COc1cc(C(=O)N2CCC3(CC2)c2c(F)cc(C(F)(F)F)n2CCN3C)ccc1OC(C)(C)C` [Compound 483], the IC50 is not above 2 µM.

`CC(C)CCOc1ccc(C(=O)N2CCC3(CC2)c2ccc(C(=O)C(F)(F)F)n2CCN3C)nc1` [Compound 438]: the IC50 was not above 2 µM.

`CC1(C)Cn2c(C(=O)C(F)(F)F)ccc2C2(CCN(C(=O)c3ccc(-c4ccccc4)c(F)c3)CC2)N1` [Compound 576]: the IC50 is not above 2 µM.

On to `CC(=O)c1ccc2n1C(C)(C)CN(C)C21CCN(C(=O)c2ccc(C(C)(C)O)c(F)c2)CC1` [Compound 225], for which the IC50 is more than 5 µM.

In the case of `Cc1cc(C(=O)N2CCC3(CC2)c2c(F)cc(C(F)(F)F)n2CCN3C)ccc1C(C)(C)O` [Compound 262], the IC50 is not above 2 µM.

For `Cc1cc(C(=O)N2CCC3(CC2)c2ccc(C(=O)C(F)(F)F)n2CCN3C)ccc1Cl` [Compound 1], the IC50 lay within 2 to 5 µM.

Turning to `COc1cc(C(=O)N2CCC3(CC2)c2ccc(C(=O)C(F)(F)F)n2CCN3C)ccc1OC(C)(C)C` [Compound 90], the IC50 was not above 2 µM.

Turning to `Cc1cc(C(=O)N2CCC3(CC2)c2ccc(C(=O)C(F)(F)F)n2CCN3C)ccc1OCCCO` [Compound 148], the IC50 is not above 2 µM.

For `COc1cc(C(=O)N2CCC3(CC2)c2ccc(C(=O)C(C)(C)C)n2CCN3C)ccc1OC(C)(C)C` [Compound 85], the IC50 is not above 2 µM.

Consider `COC(=O)C1CN(C)C2(CCN(C(=O)c3ccc(OC(C)C)c(OC)c3)CC2)c2ccc(C(F)(F)F)n21` (stereo not drawn) [Compound 458], for which the IC50 lay within 2 to 5 µM.

Take `CC(=O)c1ccc2n1CC(C)(C)NC21CCN(C(=O)c2ccc(OC(C)C)cc2F)CC1` [Compound 286]: the IC50 was not above 2 µM.

As for `Cc1cc(C(=O)N2CCC3(CC2)N[C@H](C)Cn2c(C(F)(F)F)ccc23)ccc1OC(C)C` [Compound 308], the IC50 was not above 2 µM.

Turning to `CC(C)Oc1ccc(C(=O)N2CCC3(CC2)NCC(C)(C)n2c(C(F)(F)F)ccc23)cc1F` [Compound 337], the IC50 is not above 2 µM.

Regarding `CC(C)Oc1ccc(C(=O)N2CCC3(CC2)c2ccc(C(=O)C(F)(F)F)n2C[C@H](C)N3C)c(F)c1` [Compound 695], the IC50 was not above 2 µM.

`CN1CCn2c(C(F)(F)F)ccc2C12CCN(C(=O)c1cccnc1N1CCC(F)C1)CC2` (stereo not drawn) [Compound 518]: the IC50 was not above 2 µM.

Consider `CN1CCn2c(C(F)(F)F)ccc2C12CCN(C(=O)c1cccnc1N1CCC(O)C1)CC2` (stereo not drawn) [Compound 116], for which the IC50 is more than 5 µM.

Take `CN1CCn2c(Cl)ccc2C12CCN(C(=O)c1ccc(-c3ccccc3)cc1)CC2` [Compound 104]: the IC50 is more than 5 µM.

Regarding `Cc1cc(S(=O)(=O)C(C)C)ccc1C(=O)N1CCC2(CC1)c1ccc(C(=O)C(C)(C)C)n1CCN2C` [Compound 399], the IC50 was in the range of 2 to 5 µM.

`COc1cc(C(=O)N2CC[C@@]3(C[C@@H]2C)c2ccc(C(F)(F)F)n2CCN3C)ccc1OC(C)C` [Compound 614]: the IC50 is more than 5 µM.

For `CC(C)CCOc1ccc(C(=O)N2CCC3(CC2)c2ccc(C(=O)C(C)(C)C)n2CCN3C)cc1` [Compound 661], the IC50 was not above 2 µM.

For `Cc1cc(C(=O)N2CCC3(CC2)c2ccc(C(=O)C(F)(F)F)n2CCN3C)ncc1OC(C)C` [Compound 573], the half-inhibitory concentration (IC50) was not above 2 µM.

In the case of `CN1CCn2c(C(=O)C(F)(F)F)ccc2C12CCN(C(=O)c1ccc(OC(C)(C)C)cc1)CC2` [Compound 6], the IC50 was not above 2 µM.

As to `Cc1cc(C(=O)N2CCC3(CC2)c2ccc(Cl)n2CCN3C)ccc1S(=O)(=O)C(C)C` [Compound 750], the IC50 is more than 5 µM.

Turning to `CN1CCn2c(C(=O)C(C)(C)C)ccc2C12CCN(C(=O)c1ccc(S(=O)(=O)NC3CC3)cc1)CC2` [Compound 274], the IC50 is not above 2 µM.

For the molecule `CC(C)Oc1ccc(C(=O)N2CCC3(CC2)c2ccc(Cl)n2CCN3C)cc1C(F)(F)F` [Compound 599], the IC50 was not above 2 µM.

`Cc1cc(C(=O)N2CC[C@@]3(c4ccc(C(F)(F)F)n4CCN3C)[C@H](F)C2)ccc1C(C)(C)O` [Compound 630]: the IC50 is not above 2 µM.

For `CCc1ccc(C(=O)N2CCC3(CC2)c2ccc(C(C)=O)n2CCN3C)cc1OC` [Compound 382], the IC50 lay within 2 to 5 µM.

In the case of `CCCN(CCC)S(=O)(=O)c1ccc(C(=O)N2CCC3(CC2)c2ccc(C(=O)C(F)(F)F)n2CCN3C)cc1` [Compound 671], the IC50 was not above 2 µM.

In the case of `COc1ccc(C(=O)N2CCC3(CC2)c2ccc(C(=O)C4CC4)n2CCN3C)cc1C(F)(F)F` [Compound 132], the IC50 was not above 2 µM.

Take `CC(C)Oc1ccc(C(=O)N2CCC3(CC2)NC(C)(C)Cn2c(C(F)(F)F)ccc23)c(F)c1` [Compound 721]: the IC50 was not above 2 µM.

Turning to `Cc1cc(C(=O)N2CCC3(CC2)c2ccc(C(=O)C(F)(F)F)n2C(C)CN3C)ccc1C(C)(C)O` (stereo not drawn) [Compound 311], the IC50 was not above 2 µM.

As for `CC(=O)c1ccc2n1CCN(C)C21CCN(C(=O)c2ccc(OC(C)C)c(Cl)c2)CC1` [Compound 398], the IC50 was not above 2 µM.

On to `CN1CCn2c(C(F)(F)F)ccc2C12CCN(C(=O)c1ccc(-c3ccccc3)cc1)CC2` [Compound 659], for which the IC50 is more than 5 µM.

For the molecule `Cc1cc(C(=O)N2CCC3(CC2)c2ccc(C(=O)C(F)(F)F)n2CCN3C)ccc1-c1cccc(Cl)c1` [Compound 236], the IC50 is not above 2 µM.

As for `COc1cc(C(=O)N2CCC3(CC2)c2ccc(Cl)n2CCN3C)ccc1OCCOC(F)(F)F` [Compound 650], the IC50 was not above 2 µM.

For `Cc1cc(C(=O)N2CC[C@@]3(c4ccc(C(F)(F)F)n4CCN3C)[C@H](F)C2)ccc1OC(C)C` [Compound 642], the IC50 is not above 2 µM.

`CC[C@H](C)Oc1ccc(C(=O)N2CCC3(CC2)c2ccc(C(F)(F)C(F)(F)F)n2CCN3C)cc1OC` [Compound 385]: the IC50 is not above 2 µM.

With `CN1CCn2c(C(=O)C(F)(F)F)ccc2C12CCN(C(=O)c1ccc(Cc3ccccc3)cc1)CC2` [Compound 71], the IC50 was not above 2 µM.

With `CN1CCn2c(C(F)(F)F)cc(Cl)c2C12CCN(C(=O)c1ccc(C(C)(C)O)c(F)c1)CC2` [Compound 95], the IC50 was not above 2 µM.

As for `Cc1cc(N2CCCC2)n2ncc(C(=O)N3CCC4(CC3)c3ccc(C(F)(F)F)n3CCN4C)c2n1` [Compound 378], the IC50 was not above 2 µM.

On to `CN1CCn2c(C(F)(F)F)ccc2[C@]12CCN(C(=O)c1ccc(S(=O)(=O)NC3CC3)cc1)C[C@H]2F` [Compound 244], for which the IC50 was not above 2 µM.

Take `CC1CCN(S(=O)(=O)c2ccc(C(=O)N3CCC4(CC3)c3ccc(Cl)n3CCN4C)cc2)CC1` [Compound 310]: the IC50 was more than 5 µM.

For the molecule `COc1cc(C(=O)N2CCC3(CC2)c2ccc(C(C)=O)n2CCN3C)ccc1OCCOC(F)(F)F` [Compound 541], the IC50 was not above 2 µM.

With `Cc1cc(C(=O)N2CCC3(CC2)c2ccc(C(=O)C(C)(C)C)n2CCN3C)ccc1O` [Compound 601], the IC50 is not above 2 µM.

Take `CC(C)Oc1ccc(C(=O)N2CCC3(CC2)c2ccc(C(F)(F)F)n2C[C@@H](C)N3C)c(F)c1` [Compound 749]: the IC50 is 2 to 5 µM.

With `CN1CCn2c(C(=O)C(F)(F)F)ccc2C12CCN(C(=O)c1ccc(O)c(C(F)(F)F)c1)CC2` [Compound 733], the half-maximal inhibitory concentration (IC50) is not above 2 µM.

Regarding `Cc1cc(C(=O)N2CCC3(CC2)c2ccc(CC(F)(F)F)n2CCN3C)ccc1S(=O)(=O)C(C)C` [Compound 534], the IC50 was more than 5 µM.

Consider `CCN(C)c1cc(C)nc2c(C(=O)N3CCC4(CC3)c3ccc(C(F)(F)F)n3CCN4C)cnn12` [Compound 660], for which the IC50 was not above 2 µM.

As for `COc1ccc(C(=O)N2CCC3(CC2)c2c(F)cc(C(F)(F)F)n2CCN3C)cc1C(F)(F)F` [Compound 255], the IC50 was not above 2 µM.

With `Cc1nc(C(=O)N2CCC3(CC2)c2ccc(C(=O)C(F)(F)F)n2CCN3C)ccc1O` [Compound 322], the IC50 is not above 2 µM.

Regarding `CN1CCn2c(C(=O)C(F)(F)F)ccc2C12CCN(C(=O)c1ccc(-c3ccccc3)cn1)CC2` [Compound 453], the IC50 fell in the range of 2 to 5 µM.

With `CC(C)Oc1ccc(C(=O)N2CCC3(CC2)NC(C)(C)Cn2c(C(=O)C(F)(F)F)ccc23)cc1F` [Compound 232], the IC50 is not above 2 µM.

For the molecule `Cc1cc(C(=O)N2CCC3(CC2)c2ccc(C(=O)C(F)(F)F)n2CCN3C)ccc1F` [Compound 376], the IC50 was 2 to 5 µM.

Turning to `C[C@H]1Cn2c(C(=O)C(F)(F)F)ccc2C2(CCN(C(=O)c3ccc(OCC(F)(F)F)cc3)CC2)N1C` [Compound 463], the IC50 is not above 2 µM.

For `COc1ccc(C(=O)N2CCC3(CC2)c2ccc(C(=O)C(C)(C)C)n2CCN3C)cc1C(F)(F)F` [Compound 566], the half-maximal inhibitory concentration (IC50) was not above 2 µM.

On to `CCc1ccc(C(=O)N2CCC3(CC2)c2ccc(C(=O)C(F)(F)F)n2CCN3C)cc1` [Compound 26], for which the IC50 fell in the range of 2 to 5 µM.

Regarding `COc1cc(C(=O)N2CCC3(CC2)c2ccc(C(F)(F)F)n2CCN3C(C)=O)ccc1OC(C)C` [Compound 170], the IC50 is more than 5 µM.

Consider `COc1ccc(-c2ccc(C(=O)N3CCC4(CC3)c3ccc(C(=O)C(F)(F)F)n3CCN4C)cc2C)cc1` [Compound 728], for which the IC50 was not above 2 µM.

As for `COc1cc(C(=O)N2CCC3(CC2)c2ccc(C(F)(F)F)n2CCN3C)ccc1C(C)(C)CO` [Compound 151], the IC50 was not above 2 µM.

With `Cc1cc(C(=O)N2CCC3(CC2)c2c(F)cc(C(F)(F)F)n2CCN3C)ccc1OC(C)C` [Compound 672], the IC50 was not above 2 µM.

In the case of `CC(C)Oc1ccc(C(=O)N2CCC3(CC2)c2ccc(C(=O)C(F)(F)F)n2CCN3C)cc1Cl` [Compound 528], the IC50 was not above 2 µM.

With `CC(C)Oc1ccc(C(=O)N2CCC3(CC2)NC(C)(C)Cn2c(C(F)(F)F)ccc23)cc1Cl` [Compound 37], the IC50 was not above 2 µM.
